# Patent US12669496B2, “Method for evaluating and/or screening a control agent for tissue morphology and/or tissue function” (ROHTO PHARMACEUTICAL CO., LTD., priority 2020, dated 2026)
# Experiments:
# type I collagen = test: Immunohistochemical staining of type I collagen in skin equivalent; assay type: cell-based, human
# COL1A1 = test: Real-time PCR of COL1A1 gene expression in skin equivalent models; assay type: cell-based, human; conditions: 6 to 48 hours
# HAS3 = test: Real-time PCR of HAS3 gene expression in skin equivalent models; conditions: 10 μM
# MRTFA [1] = test: Real-time PCR of MRTFA gene expression in skin equivalent models; assay type: cell-based, human; conditions: 10 μM, 6 to 48 hours; tensional homeostatic skin equivalent model (confirmed only in this model)
# MRTFA [2] = test: Immunohistochemical staining of MRTFA in skin equivalent models; assay type: cell-based, human; conditions: 10 nM, 6 to 48 hours; tensional homeostatic model; to levels approximately equivalent to tension-released model
# MMP1 = test: Real-time PCR of MMP1 gene expression in skin equivalent models; assay type: cell-based, human; conditions: 10 nM, 6 to 48 hours; tensional homeostatic model; to the equivalent level in tension-released skin equivalent
# [3] = system: Tensional homeostatic skin equivalent; test: Fluorescent staining of actin cytoskeleton and cell membrane (tissue orientation); assay type: cell-based, human; conditions: 10 nM, to level approximately equivalent to tension-released model
# MRTFA [4] = test: Image analysis of nuclear import rates of MRTFA; assay type: cell-based, human; conditions: 10 nM, 6 to 48 hours; image analysis of immunohistochemical staining
# ITGA2 = test: Immunohistochemical staining of ITGA2 in skin equivalent models; assay type: cell-based, human; conditions: 10 nM, 6 to 48 hours; tensional homeostatic model; to levels approximately equivalent to tension-released model
# ELN = test: Real-time PCR of ELN gene expression in skin equivalent models; assay type: cell-based, human; conditions: 10 nM, 6 to 48 hours; tensional homeostatic model; to the equivalent level in tension-released skin equivalent
# αSMA = test: Immunohistochemical staining of αSMA in skin equivalent models; assay type: cell-based, human; conditions: 10 nM, 6 to 48 hours; tensional homeostatic model; to levels approximately equivalent to tension-released model
# COL1A2 = test: Real-time PCR of COL1A2 gene expression in skin equivalent models; assay type: cell-based, human; conditions: 10 nM, 6 to 48 hours; tensional homeostatic model; to the equivalent level in tension-released skin equivalent
# FBN1 = test: Real-time PCR of FBN1 gene expression in skin equivalent models; assay type: cell-based, human; conditions: 10 nM, 6 to 48 hours; tensional homeostatic model; to the equivalent level in tension-released skin equivalent
SMILES,"expression of type I collagen (collagen fiber formation) (type I collagen; 10 μM, Tensional homeostatic skin model, vs control group)","COL1A1 gene expression (COL1A1; 10 μM, Tensional homeostatic skin equivalent vs control group (confirmed only in this model))","HAS3 gene expression (HAS3; 6 to 48 hours, each skin equivalent model, compared with all the control groups)",ratio of the HAS3 expression promotion (HAS3; Tensional homeostatic skin equivalent compared with the other models),MRTFA gene expression (MRTFA [1]),expression level of MRTFA (MRTFA [2]),gene expression of MMP1 (MMP1),"expression level of type I collagen (collagen fiber formation) (type I collagen; 10 nM, Tensional homeostatic skin equivalent, to level approximately equivalent to tension-released model)","gene expression of COL1A1 (COL1A1; 10 nM, tensional homeostatic model, to the equivalent level in tension-released skin equivalent)","orientations of the cytoskeletons, cell membranes, and nuclei in the tension direction [3]",nuclear import rates of MRTFA (MRTFA [4]),expression level of ITGA2 (ITGA2),gene expression of ELN (ELN),expression level of αSMA (αSMA),gene expression of COL1A2 (COL1A2),gene expression of FBN1 (FBN1)
"CC1=C(/C=C/C(C)=C/C=C/C(C)=C/C(=O)O)C(C)(C)CCC1 [ATRA, all-trans retinoic acid]",increased,significant promotion of gene expression,significant promotion of gene expression,highest value,significant increase,–,–,–,–,–,–,–,–,–,–,–
C[C@@H](N)[C@H]1CC[C@H](C(=O)Nc2ccncc2)CC1 [Y27632],–,–,–,–,–,reduces the expression levels,significantly increased,reduced,significantly inhibited,reduced the orientations,significantly reduced,reduces the expression levels,significantly inhibited,reduces the expression levels,significantly inhibited,significantly inhibited
